From patent publication US11591631B2, “Glucose monitoring method and glucose sensor” (TOYOBO CO., LTD., priority 2017, dated 2023) come the findings set out here.

Data set [1] relates to FADGDH GDH-2, SEQ ID No. 2 (SEQ ID No. 1 of JP2013-116102A). Kind of data set: Michaelis constant of GDH-2 in aqueous system (DCPIP/PMS, Lineweaver-Burk plot). The data set is classed as biochemical. Particulars: pH 6.5, 37° C., Lineweaver-Burk at 30, 50, 100, 200 mM, read-out: Michaelis constant (Km) for glucose. How it is done:
(§1) In the present invention, the activity of glucose dehydrogenase is defined using, as 1 unit (U), the amount of enzyme that reduces 1 micromole of DCPIP per minute in the presence of a substrate according to a method using a reagent having the following formulation.
(§2) 50 mM PIPES buffer (pH: 6.5; containing 0.1% TritonX-100)
(§3) 2 mM 2,5-dichlorophenolindophenol (DCPIP) solution
(§4) First, 3 ml of reaction reagent is pre-warmed at 37° C. for 5 minutes. 0.1 ml of GDH solution is added thereto, and the resulting mixture is gently mixed. Then, the change in absorbance at 600 nm is record for 5 minutes by a spectrophotometer adjusted at 37° C. with water as a control, and the change in absorbance per minute (ΔODTEST) is measured from the straight line portion. In a blind test, a solvent that dissolves GDH is added to the reagent mixture, instead of the GDH solution, and the change in absorbance per minute (ΔODBLANK) is similarly measured. From these values, GDH activity is determined according to the following formula. […] Activity (U/ml)={−(ΔODTEST−ΔODBLANK)×3.0×dilution magnification}/{16.3×0.1×1.0} […]

The subject of data set [2] is FADGDH GDH-3, SEQ ID No. 3 (SEQ ID No. 1 of JP4649993B). Kind of data set: Michaelis constant of GDH-3 in aqueous system (DCPIP/PMS, Lineweaver-Burk plot). It counts as biochemical, Mucor prainii. Particulars: pH 6.5, 37° C., Lineweaver-Burk at 30, 50, 100, 200 mM, read-out: Michaelis constant (Km) for glucose. How it is done: as §1, §2, §3, §4
Data set [3] relates to FADGDH GDH-4, SEQ ID No. 4 (SEQ ID No. 1 of JP2015-146773A). In words: Michaelis constant of GDH-4 in aqueous system (DCPIP/PMS, Lineweaver-Burk plot). It counts as biochemical. Conditions: pH 6.5, 37° C. How it is done: as §1, §2, §3, §4
The subject of data set [4] is modified FADGDH GDH-5, random mutant of FADGDH of SEQ ID No. 5. Kind of data set: Michaelis constant of GDH-5 in aqueous system (DCPIP/PMS, Lineweaver-Burk plot). Particulars: pH 6.5, 37° C., Lineweaver-Burk at 30, 50, 100, 200 mM, read-out: Michaelis constant (Km) for glucose. The data set is classed as biochemical. How it is done:
as §1, §2, §3, §4

The subject of data set [5] is modified FADGDH GDH-6, random mutant of FADGDH of SEQ ID No. 5. Kind of data set: Michaelis constant of GDH-6 in aqueous system (DCPIP/PMS, Lineweaver-Burk plot). The data set is classed as biochemical. Particulars: pH 6.5, 37° C., Lineweaver-Burk at 30, 50, 100, 200 mM, read-out: Michaelis constant (Km) for glucose. How it is done:
as §1, §2, §3, §4

Data set [6] relates to FADGDH enzymes of Table 1 (GDH-1 to GDH-4). In words: Km for D-glucose of the enzymes listed in Table 1. It counts as biochemical. Particulars: read-out: Km for D-glucose; range over the enzymes listed in Table 1. How it is done:
as §1
First, 3 ml of reaction reagent is pre-warmed at 37° C. for 5 minutes. 0.1 ml of GDH solution is added thereto, and the resulting mixture is gently mixed. Then, the change in absorbance at 600 nm is record for 5 minutes by a spectrophotometer adjusted at 37° C. with water as a control, and the change in absorbance per minute (ΔODTEST) is measured from the straight line portion. In a blind test, a solvent that dissolves GDH is added to the reagent mixture, instead of the GDH solution, and the change in absorbance per minute (ΔODBLANK) is similarly measured. From these values, GDH activity is determined according to the following formula. […] Activity (U/ml)={−(ΔODTEST−ΔODBLANK)×3.0×dilution magnification}/{16.3×0.1×1.0}
GDH-3 is obtained by genetically engineering and expressing GDH having an amino acid sequence of SEQ ID No. 3 (the amino acid sequence represented by SEQ ID No. 1 of JP4649993B) using the Cryptococcus sp. S-2 D11 strain (FERM BP-11482) described in JP5588578B. […]

Substrate in data set [7]: OC1OC[C@@H](O)[C@H](O)[C@H]1O
In words: purified protein, by the assay type. Particulars: other: pH 6.5, 37° C., aqueous system, Lineweaver-Burk.

Substrate in data set [8]: OC[C@H]1OC(O)[C@H](O)[C@@H](O)[C@@H]1O
In words: purified protein, by the assay type. Conditions: other: pH 6.5, 37° C., aqueous system, Lineweaver-Burk at 30, 50, 100, 200 mM.

Read-outs that look alike come from different tables or passages of the source.

For the molecule `OC[C@H]1OC(O)[C@H](O)[C@@H](O)[C@@H]1O` (stereo partly drawn) [D-glucose], the Km in data set [1] is 16 mM; in data set [2] it was 31 mM; in data set [3] (Lineweaver-Burk at 30, 50, 100, 200 mM, read-out: Michaelis constant (Km) for glucose), 14 mM; in data set [4], 80 mM; in data set [5], 82 mM; in data set [6] it was 14 to 82 mM.

Take `OC1OC[C@@H](O)[C@H](O)[C@H]1O` (stereo partly drawn) [D-xylose]: the Km in data set [3] (Lineweaver-Burk, read-out: Michaelis constant (Km) for xylose) was 82 mM.

B1: FADGDH GDH-1, SEQ ID No. 1 (encoded by SEQ ID No. 8 of JP527482B) (Aspergillus oryzae) (protein)
chain: MKNTTTYDYIVVGGGTSGLVVANRLSENPDVSVLLLEAGASVFNNPDVTNANGYGLAFGSAIDWQYQSINQSYAGGKQQVLRAGKALGGTSTINGMAYTRAEDVQIDVWQKLGNEGWTWKDLLPYYLKSENLTAPTSSQVAAGAAYNPAVNGKEGPLKVGWSGSLASGNLSVALNRTFQAAGVPWVEDVNGGKMRGFNIYPSTLDVDLNVREDAARAYYFPYDDRKNLHLLENTTANRLFWKNGSAEEAIADGVEITSADGKVTRVHAKKEVIISAGALRSPLILELSGVGNPTILKKNNITPRVDLPTVGENLQDQFNNGMAGEGYGVLAGASTVTYPSISDVFGNETDSIVASLRSQLSDYAAATVKVSNGHMKQEDLERLYQLQFDLIVKDKVPIAEILFHPGGGNAVSSEFWGLLPFARGNIHISSNDPTAPAAINPNYFMFEWDGKSQAGIAKYIRKILRSAPLNKLIAKETKPGLSEIPATAADEKWVEWLKANYRSNFHPVGTAAMMPRSIGGVVDNRLRVYGTSNVRVVDASVLPFQVCGHLVSTLYAVAERASDLIKEDAKSA
For the molecule B1, the Km in data set [7] is on record as 39 mM; in data set [8], 68 mM.
